Reference: patent publication US6413967B1, “Inhibition of novel calcium entry pathway in electrically non-excitable cells acting as an anti-proliferative therapy” (The University of Virginia Patents Foundation, priority 1995, dated 2002)

Tests used:
[1] = test system: MDA-468 human breast cancer cells; assay: MDA-468 cell proliferation, tetrazolium dye; assay type: cell-based; conditions: human breast cancer cell proliferation, 48 hours
Method: The effect of various drugs on the proliferation of Jurkat T cells, MDA-468 human breast cancer cells and PC3 human prostate cancer cells was determined by incubating the cells with the indicated concentrations of drug for 48 hours. The number of viable cells remaining at the end of the incubation period was evaluated using the procedure outlined in Example 4.
Cells are plated in triplicate in a 96-well flat-bottomed plate (Jurkat: 5e4 cells/well in RPMI-1640 plus 5% fbs; MDA468: 2.5e4 per well in DMEM plus 5% fbs and 11 μg/ml insulin) in the absence (control) or presence of drug at 3, 10, 30, and 100 μM. An additional control of 100 μM drug in RPMI-1640 plus 5% fbs or DMEM plus 5% fbs and 11 μg/Ml insulin with no cells is included with each run to control for possible drug interactions with the dye. The plate is then placed in a 5% CO2 37° C. incubator for 44 to 48 hours. 20 μl of dye solution containing a tetrazolium dye (3-(4,5-dimethylthiazol-2-yl)-5-(3-carboxymethoxyphenyl)-2-(4-sulfophenyl)-2H-tetrazolium, Owen's reagent) plus coupling reagent (phenazine methosulfate) is added to each well, the plate is returned to the incubator, and the absorbance at 490 nm is read using an ELISA plate reader 3 to 4 h (Jurkat cells) or 2 to 3 h (MDA-468 cells) later. All data are presented as percent of control (no drug addition). With this protocol, it is possible to determine the effect of 5 drugs at 4 concentrations in a single 96-well plate as outlined below: […]

[2] = test system: VG Ca^2+ current in Jurkat cells; assay: perforated patch clamp, voltage gated (VG) Ca2+ current; assay type: cell-based, human; conditions: Homo sapiens, 10 μM NDGA
Method: (§1) All recordings were performed using the perforated patch method (Horn et al, J. Gen. Physiol. (1988) 92:145) of the gigaseal patch clamp technique (Hammil et al, Pflugers Arch (1981) 391:85) with microelectrodes of 5-10 megohm series resistance. In all solutions for voltage clamp, K^+ was replaced with Cs^+ to block outward K^+ currents (Fox et al, J. Physiol. (Lond.) (1987) 392:149). The bath solution contained (in mM): NaCl, 155; CsCl, 4.5; CaCl2, 2; MgCl2, 1; D-glucose, 5; HEPES, 10 (pH 7.4 with NaOH). The pipette solution contained (in mM): CsCl, 55; Cesium methanesulfonate, 70; CaCl2, 1; MgCl2, 7; HEPES, 10 (pH 7.3 with NaOH). Nystatin was made as a stock solution of 6 mg/100 μl DMSO, and 2 μl of the stock was added to 1 ml of the pipette solution for use. Both pipette and bath solutions were 290-300 mOsm. Experiments were performed on cells at room temperature using the Axopatch-1D patch clamp (Axon Instruments, Foster City, Calif.) after correction of junction potentials and leak subtraction. Records were low-pass filtered at 500 Hz, and the data were collected, stored and analyzed using the pClamp software program (Axon Instruments). For the non-voltage gated current traces, data is presented either as the tracing from a chart recorder or from the digital data in which the current was measured at 5 second intervals and plotted as individual points.

[3] = test system: [Ca^2+]i in MDA-468 cells; assay: EGF receptor-stimulated Ca2+ influx in MDA-468 cells; assay type: cell-based, human; conditions: effect the same post- and pre- EGF receptor stimulation
Method: MDA468 cells are incubated with either indo-1 or the combination of fura-red/fluo-3 for 1 hour while still adherent in the maintenance flask in DMEM plus 5% fbs and 1 μg/ml insulin. Cells are removed by gentle scraping and washed three times in buffer A containing 1% charcoal stripped fbs (Nelson et al, Br. J. Cancer (1991) 63:933). The cells are then suspended to a final concentration of 1e6/ml and used as above in the SLM. For the human breast cancer cells, Ca^2+ entry is stimulated by the addition of 25 ng/ml EGF, rather than the antibody used above.

[4] = test system: IL-2 production by Jurkat cells; assay: interleukin-2 production with CT-EV bioassay; assay type: cell-based, human
Method: Jurkat cells were suspended at a concentration of 2×10^6 cells/ml in serum-free RPMI-1640 containing 100 U/ml penicillin and 100 μg/ml streptomycin. Cells were treated for 15 min with the appropriate compound to be tested prior to stimulation with 1 μg/ml PHA plus 10 nM PDB (calcium-independent) or with PHA alone (calcium dependent). The cells were then incubated for 2 h at 37° C. Following the 2 h stimulation period, the cells were washed twice with RPMI-1640 supplemented with 5% FBS with 5 min incubations between washes and were resuspended at 2×10^6 cells/ml. The cell suspensions were placed in wells of 24 well plates and were incubated at 37° C. for 24 h. At the end of the incubation, the suspensions were collected, the cells were pelleted and the supernatant was stored at 4° C. for later assay for IL-2 levels. […] Standard curves were generated by addition of known amounts of recombinant human IL-2 (BioWhittaker) to allow determination of IL-2 content in each sample. Plates were then incubated at 37° C. for 48 h. To determine proliferation of CTEV cells, 1 μCi of [^3H]-Thymidine (6.7 Ci/mmol; New England Nuclear) was added to each well for the final 16 hours of the assay and at 48 h the cells were harvested and incorporated ^3H was counted by liquid scintillation counting.

[5] = test system: NVG current in Jurkat cells; assay: perforated patch clamp, non-voltage gated (NVG) current; assay type: cell-based, human; conditions: membrane potential −60 mV, 300 nM thapsigargin, amiloride 100 μM, MnCl2 300 μM, NiCl2 1 mM, W-7 30 μM, NDGA 10 μM
Method: as §1

human PBMC = assay: lymphocyte proliferation, 3H-thymidine incorporation; assay type: cell-based
Method: Human PBMC were isolated from peripheral blood obtained from healthy donors. Cells were washed twice and were placed in triplicate wells at a concentration of 1×10^5 cells/ml in serum-free RPMI-1640 supplemented with 100 U of both penicillin and streptomycin. Drug treatments were added 15 minutes before stimulation of the cells and were present throughout the 1 hour stimulation period. Stimulation by mitogen (1 μg/ml PHA) in combination with 10 nM phorbol dibutyrate (PDB) was carried out for 1 hour at 37° C. Cells were subsequently washed 3 times with RPMI and were resuspended at a concentration of 1×10^5 cells/ml in RPMI-1640 supplemented with 5% FBS and 100 U/ml of penicillin and 100 μg/ml streptomycin. For the 48 hour proliferation phase, cells were cultured with (Ca^2+-independent proliferation) or without (Ca^2+-dependent proliferation) 10 nM PDB. 1 μCi of [^3H]-Thymidine (6.7 Ci/mmol; New England Nuclear, Boston, Mass.) was added to each well for the final 16 hours of the assay and at 48 h the cells were harvested and incorporated ^3H was counted by liquid scintillation counting.

In the case of CC(Cc1ccc(O)c(O)c1)C(C)Cc1ccc(O)c(O)c1 (stereo not drawn) [NDGA, 4,4′-(2,3-dimethyl-1,4-butanediyl)bis[1,2-benzenediol]], the “MDA PROLIF” value [1] is reported as “↓”, the inhibition at 10 µM [2] is reported as about 70% and the “MDA [CA^2+]i” value [3] is reported as “↓”. The “effect on IL-2 secretion, Ca^2+-dependent stimulation” value [4] was “suppressed”, the “effect on IL-2 secretion, stimulus not initially requiring extracellular Ca^2+” value [4] was “little effect” and the “effect on the thapsigargin-induced NVG current” value [5] was “no effect”. The IC50 (human PBMC; Ca^2+-dependent protocol (PHA/PDB 1 h, then medium 48 h), n=6, read-out: IC50 for inhibition of proliferation) was about 3000 nM, the “effect on Ca^2+-independent proliferation” value (human PBMC; PHA/PDB 1 h then PDB 48 h) was “no effect” and the “effect on Ca^2+-dependent proliferation” value (human PBMC; PHA/PDB 1 h then medium alone 48 h) was “inhibited proliferation”.
